pIC50: −log10 of the molar value. Where two headings read alike, the source gives them in different places.
Columns and labels:
hP2X2/3H = molecular target: T1, hP2X2/3H (Homo sapiens, UniProt P56373+Q9UBL9); assay: Calcium uptake assay (P2X antagonist assay), P2X2/3 heteromer; assay type: cell-based; settings: for IC50: read-out: IC50 hP2X2/3H (nM), Ca Influx; for pIC50: read-out: IC50 hP2X2/3H
T1 construct: expressed in transfected cells; host or cells: e.g. HEK293 or 1321N1
T1 sequence (Q9UBL9 1-471): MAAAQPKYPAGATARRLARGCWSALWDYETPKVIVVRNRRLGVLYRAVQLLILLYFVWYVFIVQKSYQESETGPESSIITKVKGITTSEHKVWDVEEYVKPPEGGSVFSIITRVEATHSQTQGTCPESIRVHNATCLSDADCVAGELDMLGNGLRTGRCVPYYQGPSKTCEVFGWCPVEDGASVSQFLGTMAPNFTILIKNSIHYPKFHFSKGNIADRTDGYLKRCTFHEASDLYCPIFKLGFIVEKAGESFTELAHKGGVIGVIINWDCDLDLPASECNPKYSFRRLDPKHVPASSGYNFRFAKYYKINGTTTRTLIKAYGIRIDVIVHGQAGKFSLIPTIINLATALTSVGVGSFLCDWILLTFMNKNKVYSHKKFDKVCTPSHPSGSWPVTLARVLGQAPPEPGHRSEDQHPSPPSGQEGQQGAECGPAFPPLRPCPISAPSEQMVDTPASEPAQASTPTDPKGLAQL
T1 sequence (P56373 1-397): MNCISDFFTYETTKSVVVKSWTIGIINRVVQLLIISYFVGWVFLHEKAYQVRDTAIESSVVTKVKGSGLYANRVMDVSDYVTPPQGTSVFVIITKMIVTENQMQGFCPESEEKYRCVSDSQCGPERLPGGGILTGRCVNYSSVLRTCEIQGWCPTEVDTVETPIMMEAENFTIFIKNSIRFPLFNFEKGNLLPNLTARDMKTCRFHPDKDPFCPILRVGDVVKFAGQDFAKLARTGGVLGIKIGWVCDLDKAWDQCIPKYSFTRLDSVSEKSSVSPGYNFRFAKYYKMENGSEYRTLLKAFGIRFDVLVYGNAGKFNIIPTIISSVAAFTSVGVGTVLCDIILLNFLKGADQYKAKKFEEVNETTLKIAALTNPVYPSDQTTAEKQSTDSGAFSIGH
Summary of the method: (§1)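 Stably or transiently transfected HEK293 or 1321N1 cells; the heteromer is made by adding P2X3 to a P2X2-stable line, with heteromer function isolated pharmacologically. The peak-minus-baseline FLIPR calcium signal gives % inhibition and a 4-parameter-logistic IC50.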

hP2X3 = molecular target: T2, hP2X3 (Homo sapiens, UniProt P56373); assay: Calcium uptake assay (P2X antagonist assay), P2X3 homomer; assay type: cell-based; settings: for IC50: read-out: IC50 hP2X3 (nM), Ca Influx; for pIC50: read-out: IC50 hP2X3
T2 construct: expressed in transfected cells; host or cells: e.g. HEK293 or 1321N1
T2 sequence (P56373 1-397): T1 sequence (P56373 1-397)
Summary of the method: as §1

[1] = Ca influx (calcium uptake assay), hP2X2/3H
[2] = Ca influx (calcium uptake assay), hP2X3
[3] = Ca influx, calcium uptake assay

SMILES	IC50 (hP2X2/3H; calcium uptake assay, hP2X2/3H) [nM]	IC50 (hP2X3; calcium uptake assay, hP2X3) [nM]	pIC50 (hP2X2/3H; [1])	pIC50 (hP2X3; [2])	further results
Cc1ccc(-c2cc(C(=O)NCc3ccc(C)nc3)cc(C(=O)N3CCc4ccccc4C3)c2)cc1 [Compound 187, 4′-Methyl-N-((6-methylpyridin-3-yl)methyl)-5-(1,2,3,4-tetrahydroisoquinoline-2-carbonyl)biphenyl-3-carboxamide]	100 to 500	100 to 500	–	–	–
Cc1ccc(-c2cc(C(=O)N[C@H](C)c3ccc(C)nc3)cc(C(C)O)c2)cc1 (some centres unmarked) [Compound 321]	–	–	> 7.00	> 7.00	–
Cc1ncc([C@@H](C)NC(=O)c2cc(-c3ccccc3)cc(S(C)(=O)=O)c2)cn1 [Compound 370]	–	–	6.00 to 6.30	> 7.00	–
Cc1ccc(-c2cc(OC3COCC3O)cc(C(=O)N[C@H](C)c3cnc(C)nc3)c2)cc1 (some centres unmarked) [Compound 362]	–	–	> 7.00	> 7.00	–
Cc1ccc(-c2cc(Oc3ncccn3)cc(C(=O)NCc3ccc(C)nc3)c2)cc1 [Compound 233]	–	–	6.30 to 7.00	6.30 to 7.00	–
Cc1ccc(-c2cc(C(=O)NCc3ccc(C)nc3)cc(S(C)(=O)=O)c2)nc1 [Compound 113, 3-(5-Methylpyridin-2-yl)-N-((6-methylpyridin-3-yl)methyl)-5-(methylsulfonyl)benzamide]	100 to 500	< 100	–	–	–
Cc1ccc(-c2cc(CO)cc(C(=O)N[C@H](C)c3cnc(C)nc3)c2)c(C#N)c1 [Compound 303]	–	–	6.30 to 7.00	> 7.00	–
Cc1ccc(-c2cc(C(=O)NCc3cnc(C)nc3)cc(C(=O)N3CCCC3)c2)c(C#N)c1 [Compound 39, 2′-Cyano-4′-methyl-N-((2-methylpyrimidin-5-yl)methyl)-5-(pyrrolidine-1-carbonyl)biphenyl-3-carboxamide]	< 100	< 100	–	–	–
Cc1ccc(-c2cc(C(=O)NCc3ccc(C)nc3)cc(C(=O)N3CC[C@H](O)C3)c2)cc1 [Compound 95, (S)-5-(3-Hydroxypyrrolidine-1-carbonyl)-4′-methyl-N-((6-methylpyridin-3-yl)methyl)biphenyl-3-carboxamide]	100 to 500	< 100	–	–	–
Cc1ccc(CNC(=O)c2cc(-c3ccc(C)c(Cl)c3)cc(S(C)(=O)=O)c2)cn1 [Compound 120]	> 1000	> 1000	–	–	–
Cc1ccc(-c2cc(C(=O)NCc3ccc(C)nc3)cc(C(=O)N3CCc4ccccc43)c2)cc1 [Compound 186]	< 100	100 to 500	–	–	–
Cc1ccc(-c2cc(C(=O)NCc3ccc4c(c3)OCO4)cc(C(=O)N3CCCC3)c2)cc1 [Compound 98]	100 to 500	100 to 500	–	–	–
Cc1ccc(-c2cc(C(=O)NCc3cnc(C)nc3)cc(C(O)c3ccccn3)c2)cc1 (centres unmarked) [Compound 267]	–	–	> 7.00	> 7.00	–
Cc1ccc(-c2cc(OC3CCOC3)cc(C(=O)N[C@H](C)c3cnc(C)nc3)c2)nc1 (some centres unmarked) [Compound 357]	–	–	6.30 to 7.00	> 7.00	–
Cc1ccc(-c2cc(Oc3nc(C)cs3)cc(C(=O)N[C@H](C)c3ccc(C)nc3)c2)c(C#N)c1 [Compound 373]	–	–	> 7.00	> 7.00	–
Cc1ccc(-c2cc(C(=O)N[C@H](C)c3ccc(C)nc3)cc(C(O)c3nccs3)c2)cc1 (stereo partly drawn) [Compound 280, 5-(Hydroxy(thiazol-2-yl)methyl)-4′-methyl-N—((R)-1-(6-methylpyridin-3-yl)ethyl)biphenyl-3-carboxamide]	–	–	> 7.00	> 7.00	–
Cc1ccc(-c2cc(C(=O)N[C@H](C)c3ccc(C)nc3)cc(C(O)c3ccccn3)c2)c(C#N)c1 (some centres unmarked) [Compound 284]	–	–	> 7.00	> 7.00	–
Cc1ccc(-c2cc(Oc3nccs3)cc(C(=O)N[C@H](C)c3ccc(C)nc3)c2)nc1 [Compound 264, (R)-3-(5-Methylpyridin-2-yl)-N-(1-(6-methylpyridin-3-yl)ethyl)-5-(thiazol-2-yloxy)benzamide]	–	–	> 7.00	> 7.00	–
Cc1ncc(CNC(=O)c2cc(C(=O)N3CCCC3)cc(-c3ccc(Cl)cc3)c2)cn1 [Compound 40]	100 to 500	< 100	–	–	–
Cc1ccc(-c2cc(C(=O)N[C@H](C)c3ccc(C)nc3)cc(C(O)c3ccccn3)c2)cc1 (stereo partly drawn) [Compound 241, 5-(Hydroxy(pyridin-2-yl)methyl)-4′-methyl-N—((R)-1-(6-methylpyridin-3-yl)ethyl)biphenyl-3-carboxamide]	–	–	> 7.00	> 7.00	–

SMILES	IC50 (hP2X2/3H; calcium uptake assay, hP2X2/3H) [nM]	IC50 (hP2X3; calcium uptake assay, hP2X3) [nM]	pIC50 (hP2X2/3H; [1])	pIC50 (hP2X3; [2])	further results
Cc1ccc(-c2cc(C(=O)N[C@@H](C)CO)cc(C(=O)N(C)CC(C)C)c2)cc1 [Compound 1, (S)—N-(1-Hydroxypropan-2-yl)-N-isobutyl-N,4′-dimethylbiphenyl-3,5-dicarboxamide]	100 to 500	< 100	–	–	–
Cc1ccc(-c2cc(CO)cc(C(=O)N[C@H](C)c3ccc(C)nc3)c2)c(C#N)c1 [Compound 290, (R)-2′-Cyano-5-(hydroxymethyl)-4′-methyl-N-(1-(6-methylpyridin-3-yl)ethyl)biphenyl-3-carboxamide]	–	–	> 7.00	> 7.00	–
CCCS(=O)(=O)c1cc(C(=O)N[C@@H](C)CN2CCOCC2)cc(-c2ccc(C)cc2)c1 [Compound 70]	100 to 500	< 100	–	–	–
Cc1ccc(-c2cc(Oc3ncccn3)cc(C(=O)N[C@H](C)c3ccc(C)nc3)c2)cc1 [Compound 232, (R)-4′-Methyl-N-(1-(6-methylpyridin-3-yl)ethyl)-5-(pyrimidin-2-yloxy)biphenyl-3-carboxamide]	–	–	> 7.00	> 7.00	–
Cc1ccc(-c2cc(C(=O)NCc3ncc(Cl)cc3Cl)cc(C(=O)N3CC(O)C3)c2)cc1 [Compound 134]	< 100	< 100	–	–	–
Cc1ccc(-c2cc(C(=O)N[C@H](C)c3ccc(C(F)(F)F)nc3)cc(C(=O)N3CC[C@@H](O)C3)c2)nc1 [Compound 150]	< 100	< 100	–	–	–
Cc1ccc(-c2cc(C(=O)NCc3ccc(C)nc3)cc(C(O)CN3CC4CN(C)CC4C3)c2)cc1 (centres unmarked) [Compound 399]	–	–	–	–	pIC50 (hP2X2/3H; [3]): 6.00 to 6.30; pIC50 (hP2X3; [3]): 6.30 to 7.00
Cc1ccc(-c2cc(C(=O)N[C@H](C)c3ccc(C)nc3)cc(S(=O)(=O)C3CCCC3)c2)cc1 [Compound 218]	–	–	> 7.00	> 7.00	–
Cc1ccc(-c2cc(C(N)=O)cc(C(=O)NCc3ccc(C)nc3)c2)cc1 [Compound 161]	100 to 500	< 100	–	–	–
Cc1ccc(-c2cc(C(=O)N[C@H](CO)c3cnc(C)nc3)cc(S(C)(=O)=O)c2)cc1 [Compound 221, (S)—N-(2-Hydroxy-1-(2-methylpyrimidin-5-yl)ethyl)-4′-methyl-5-(methylsulfonyl)biphenyl-3-carboxamide]	–	–	> 7.00	> 7.00	–
Cc1ccc(-c2cc(OC3COCC3O)cc(C(=O)N[C@H](C)c3ccc(C)nc3)c2)nc1 (some centres unmarked) [Compound 347]	–	–	6.30 to 7.00	> 7.00	–
Cc1ccc(-c2cc(Oc3nccs3)cc(C(=O)N[C@H](C)c3cnc(C)nc3)c2)c(C#N)c1 [Compound 254, (R)-2′-Cyano-4′-methyl-N-(1-(2-methylpyrimidin-5-yl)ethyl)-5-(thiazol-2-yloxy)biphenyl-3-carboxamide]	–	–	> 7.00	> 7.00	–
Cc1ccc(-c2cc(OC(C)CO)cc(C(=O)N[C@H](C)c3ccc(C)nc3)c2)nc1 (some centres unmarked) [Compound 345]	–	–	> 7.00	> 7.00	–
Cc1ccc(-c2cc(C(=O)N[C@@H](C)CO)cc(S(=O)(=O)C(C)C)c2)cc1 [Compound 288]	–	–	< 6.00	> 7.00	–
Cc1ccc(-c2cc(C(=O)NCc3ccc(C)nc3)cc(C(=O)N(C)c3ccccn3)c2)cc1 [Compound 164]	100 to 500	< 100	–	–	–
Cc1ccc(-c2cc(C(=O)NCc3ccn4ccnc4c3)cc(S(C)(=O)=O)c2)nc1 [Compound 351]	–	–	6.30 to 7.00	> 7.00	–
Cc1ccc(-c2cc(C(=O)N[C@H](CO)c3ccc(C(F)(F)F)nc3)cc(C(=O)N3CCCC3)c2)cc1 [Compound 92]	< 100	< 100	–	–	–
Cc1ccc(-c2cc(S(=O)(=O)N3CCCC3)cc(C(=O)NCc3cnc(C)nc3)c2C)cc1 [Compound 67, 2,4′-Dimethyl-N-((2-methylpyrimidin-5-yl)methyl)-5-(pyrrolidin-1-ylsulfonyl)biphenyl-3-carboxamide]	> 1000	< 100	–	–	–
Cc1ccc(-c2cc(C(=O)N[C@H](C)c3cnc(C)nc3)cc(C(O)c3nccs3)c2)nc1 (some centres unmarked) [Compound 292]	–	–	> 7.00	> 7.00	–
Cc1ccc(-c2cc(C(=O)NC(C)c3ccc(Cl)c(S(C)(=O)=O)c3)cc(S(C)(=O)=O)c2)nc1 (centres unmarked) [Compound 371]	–	–	6.30 to 7.00	> 7.00	–
